Among the data in paper PMC6910110, “Icaritin, an inhibitor of beta-site amyloid cleaving enzyme-1, inhibits secretion of amyloid precursor protein in APP-PS1-HEK293 cells by impeding the amyloidogenic pathway” (PeerJ, 2019) are IC50 values, retold here.

The target in the test is T1, beta-site amyloid cleaving enzyme (BACE)1 (Homo sapiens, UniProt P56817).
T1 construct: gene BACE1
In words: BACE1 FRET assay kit (Panvera), Swedish-mutant peptide substrate. The format is biochemical.

T1 sequence (P56817 46-457): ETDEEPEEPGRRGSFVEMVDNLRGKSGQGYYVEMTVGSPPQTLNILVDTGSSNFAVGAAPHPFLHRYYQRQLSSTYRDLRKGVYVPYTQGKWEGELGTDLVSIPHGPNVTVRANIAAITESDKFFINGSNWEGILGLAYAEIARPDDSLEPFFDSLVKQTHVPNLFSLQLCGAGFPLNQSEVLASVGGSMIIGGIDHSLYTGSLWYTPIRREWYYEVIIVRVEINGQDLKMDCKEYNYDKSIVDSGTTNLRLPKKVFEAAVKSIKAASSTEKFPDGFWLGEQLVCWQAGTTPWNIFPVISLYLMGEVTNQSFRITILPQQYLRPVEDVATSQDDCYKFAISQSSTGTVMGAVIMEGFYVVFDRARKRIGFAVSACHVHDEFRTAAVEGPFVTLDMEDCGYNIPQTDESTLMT

Regarding `COc1ccc(-c2oc3c(CC=C(C)C)c(O)cc(O)c3c(=O)c2O)cc1` [ICT, Icaritin], it took 5.7 ± 1.09 µM to reach half-maximal inhibition (IC50).
